Read-outs that look alike come from different tables or passages of the source.

This is an account of results in patent US12559506B2, “Indazole based compounds and associated methods of use” (Arvinas Operations, Inc., priority 2021, dated 2026).

The target in the test is T1, LRRK2 (endogenous, HiBit tagged) (Homo sapiens, UniProt Q5S007).
T1 construct: endogenous in cells; host or cells: HEK293 cells with HiBit knock-in at the endogenous LRRK2 locus, stably expressing firefly luciferase
In words: Endogenous LRRK2 degradation assay, endogenous gene C-terminally HiBit-tagged in HEK293 cells (Nano-Glo Dual Luciferase). The format is cell-based. The method in brief:
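LRRK2-HiBit quantified via Nano-Glo Dual Luciferase in HEK293 knock-in cells co-expressing firefly luciferase, after 24 h exposure to compound (1 μM final top, 1:3, 11 points). Values normalised to DMSO median per plate and curve-fitted; Alamar Blue viability run alongside.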
A general note: The HiBiT peptide binds its large partner to form an active luciferase.

Setting [1] is: endogenous HiBit-tagged LRRK2 in HEK293 cells, 24 hours treatment, read-out: Endogenous WT DC50.
Setting [2] is: endogenous HiBit-tagged LRRK2 in HEK293 cells, 24 hours treatment, read-out: Endogenous WT Dmax.
[3] abbreviates: endogenous HiBit-tagged LRRK2 in HEK293 cells, 24 hours treatment, read-out: **Endogenous WT Dmax (%).
The mark [4] stands for this setting: endogenous HiBit-tagged LRRK2 in HEK293 cells, 24 hours treatment, read-out: *Endogenous WT DC50.
Setting [5] is: endogenous HiBit-tagged LRRK2, HEK293 cells, 24 hours, read-out: **Endogenous WT Dmax (%).
The mark [6] stands for this setting: endogenous HiBit-tagged LRRK2, HEK293 cells, 24 hours, read-out: *Endogenous WT DC50.

T1 sequence (Q5S007 whole entry): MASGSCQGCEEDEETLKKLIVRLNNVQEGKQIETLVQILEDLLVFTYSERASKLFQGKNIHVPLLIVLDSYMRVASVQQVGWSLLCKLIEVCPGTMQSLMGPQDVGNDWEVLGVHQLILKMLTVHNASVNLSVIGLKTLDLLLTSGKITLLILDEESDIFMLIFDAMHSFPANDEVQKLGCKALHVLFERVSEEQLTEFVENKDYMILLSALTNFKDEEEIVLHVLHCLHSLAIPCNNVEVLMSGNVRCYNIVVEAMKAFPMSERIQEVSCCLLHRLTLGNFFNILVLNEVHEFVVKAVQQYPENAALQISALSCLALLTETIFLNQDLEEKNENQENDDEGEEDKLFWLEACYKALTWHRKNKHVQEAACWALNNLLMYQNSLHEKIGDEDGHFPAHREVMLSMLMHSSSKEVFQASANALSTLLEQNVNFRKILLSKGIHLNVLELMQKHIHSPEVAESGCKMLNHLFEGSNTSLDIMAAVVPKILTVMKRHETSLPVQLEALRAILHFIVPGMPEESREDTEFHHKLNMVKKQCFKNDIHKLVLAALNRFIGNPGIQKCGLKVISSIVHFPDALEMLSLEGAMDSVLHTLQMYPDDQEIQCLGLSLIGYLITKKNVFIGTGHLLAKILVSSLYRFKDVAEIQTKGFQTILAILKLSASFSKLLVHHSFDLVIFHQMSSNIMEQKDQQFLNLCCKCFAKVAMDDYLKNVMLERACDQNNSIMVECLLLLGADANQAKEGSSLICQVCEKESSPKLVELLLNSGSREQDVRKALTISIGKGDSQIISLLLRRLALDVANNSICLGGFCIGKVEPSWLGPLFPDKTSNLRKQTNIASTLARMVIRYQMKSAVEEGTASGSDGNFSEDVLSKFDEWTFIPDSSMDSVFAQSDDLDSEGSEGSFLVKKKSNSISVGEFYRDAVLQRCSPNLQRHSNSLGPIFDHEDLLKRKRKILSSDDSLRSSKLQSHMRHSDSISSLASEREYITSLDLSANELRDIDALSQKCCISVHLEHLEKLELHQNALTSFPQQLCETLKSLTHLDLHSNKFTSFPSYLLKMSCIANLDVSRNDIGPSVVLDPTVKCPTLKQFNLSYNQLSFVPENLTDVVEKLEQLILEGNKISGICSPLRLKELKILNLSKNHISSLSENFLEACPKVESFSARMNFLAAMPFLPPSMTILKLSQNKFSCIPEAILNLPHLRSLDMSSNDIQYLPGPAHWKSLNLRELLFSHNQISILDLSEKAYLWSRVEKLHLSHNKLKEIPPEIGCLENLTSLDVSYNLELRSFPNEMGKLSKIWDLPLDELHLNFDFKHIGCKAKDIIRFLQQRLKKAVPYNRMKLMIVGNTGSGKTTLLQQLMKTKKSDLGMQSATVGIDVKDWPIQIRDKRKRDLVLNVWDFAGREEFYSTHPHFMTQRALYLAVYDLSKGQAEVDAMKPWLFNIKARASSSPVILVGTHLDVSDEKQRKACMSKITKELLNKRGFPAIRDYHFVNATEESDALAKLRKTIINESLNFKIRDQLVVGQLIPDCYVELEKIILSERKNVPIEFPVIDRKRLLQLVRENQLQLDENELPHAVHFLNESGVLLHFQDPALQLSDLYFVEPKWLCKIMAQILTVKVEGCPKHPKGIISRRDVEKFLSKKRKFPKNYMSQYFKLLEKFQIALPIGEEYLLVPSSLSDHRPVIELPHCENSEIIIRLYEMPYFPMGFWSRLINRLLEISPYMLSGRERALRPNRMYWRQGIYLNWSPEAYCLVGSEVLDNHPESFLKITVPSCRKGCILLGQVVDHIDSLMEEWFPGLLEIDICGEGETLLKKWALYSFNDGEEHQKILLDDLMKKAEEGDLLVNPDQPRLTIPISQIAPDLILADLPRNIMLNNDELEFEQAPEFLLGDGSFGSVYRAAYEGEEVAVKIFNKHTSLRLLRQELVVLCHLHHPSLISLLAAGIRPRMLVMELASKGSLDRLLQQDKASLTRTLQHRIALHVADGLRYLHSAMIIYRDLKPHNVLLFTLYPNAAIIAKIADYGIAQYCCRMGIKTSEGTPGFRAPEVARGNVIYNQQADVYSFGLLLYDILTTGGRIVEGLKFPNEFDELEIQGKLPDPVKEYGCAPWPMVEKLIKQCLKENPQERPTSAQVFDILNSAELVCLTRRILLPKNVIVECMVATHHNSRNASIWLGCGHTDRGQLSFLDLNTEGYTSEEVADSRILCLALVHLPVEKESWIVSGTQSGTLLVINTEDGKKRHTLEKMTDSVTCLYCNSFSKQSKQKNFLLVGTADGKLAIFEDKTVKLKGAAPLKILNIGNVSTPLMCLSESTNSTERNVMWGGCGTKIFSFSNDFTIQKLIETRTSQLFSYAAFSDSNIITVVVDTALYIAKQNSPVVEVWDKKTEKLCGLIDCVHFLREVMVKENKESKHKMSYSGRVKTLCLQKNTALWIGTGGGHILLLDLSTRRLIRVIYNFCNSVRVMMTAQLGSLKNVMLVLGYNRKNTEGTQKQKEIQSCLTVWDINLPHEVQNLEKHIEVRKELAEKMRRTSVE

With `COc1c(N2CCC(O[C@H]3CC[C@H](CN4CCN(c5cc(-c6[nH]nc7ccc(OC8(C)CC8)cc67)ncn5)CC4)CC3)CC2)ccc2c1CN(C1CCC(=O)NC1=O)C2=O` (some centres unmarked) [Compound 238, 3-[4-methoxy-1-oxo-5-(4-{[(1r,4r)-4-[(4-{6-[5-(1-methylcyclopropoxy)-2H-indazol-3-yl]pyrimidin-4-yl}piperazin-1-yl)methyl]cyclohexyl]oxy}piperidin-1-yl)-2,3-dihydro-1H-isoindol-2-yl]piperidine-2,6-dione], the DC50 (as a rule, the midpoint of the concentration-degradation curve) under setting [1] was under 10 nM. Moreover, under setting [2], the maximal degradation (Dmax) (in general, the largest share of the target that was removed) lay within 50 to 70%.
For `CC1(Oc2cc3c(-c4cc(N5CCC(O[C@H]6CC[C@H](OC7CCN(c8ccc9c(c8F)CN(C8CCC(=O)NC8=O)C9=O)CC7)CC6)CC5)ncn4)n[nH]c3cc2F)CC1` (some centres unmarked) [Compound 227, 3-[4-fluoro-1-oxo-5-(4-{[(1r,4r)-4-[(1-{6-[6-fluoro-5-(1-methylcyclopropoxy)-1H-indazol-3-yl]pyrimidin-4-yl}piperidin-4-yl)oxy]cyclohexyl]oxy}piperidin-1-yl)-2,3-dihydro-1H-isoindol-2-yl]piperidine-2,6-dione] the same measures were under 10 nM and 50 to 70%.
Take `CC1(Oc2ccc3n[nH]c(-c4cc(N5CCC(O[C@H]6C[C@H](N7CCC(c8ccc9c(c8F)CN(C8CCC(=O)NC8=O)C9=O)CC7)C6)CC5)ncn4)c3c2)CC1` (some centres unmarked) [Compound 290, 3-(4-fluoro-1-oxo-5-{1-[(1r,3r)-3-[(1-{6-[5-(1-methylcyclopropoxy)-2H-indazol-3-yl]pyrimidin-4-yl}piperidin-4-yl)oxy]cyclobutyl]piperidin-4-yl}-2,3-dihydro-1H-isoindol-2-yl)piperidine-2,6-dione]: under setting [3], the Dmax is at least 70%. Under setting [4], the DC50 is under 10 nM.
With `Cc1cc(-c2n[nH]c3ccc(OC4(C)CC4)nc23)cc(N2CCC(O[C@H]3CC[C@H](CN4CCN(c5ccc6c(c5F)CN(C5CCC(=O)NC5=O)C6=O)CC4)CC3)CC2)n1` (some centres unmarked) [Compound 371, 3-[4-fluoro-1-oxo-5-(4-{[(1r,4r)-4-[(1-{6-methyl-4-[5-(1-methylcyclopropoxy)-1H-pyrazolo[4,3-b]pyridin-3-yl]pyridin-2-yl}piperidin-4-yl)oxy]cyclohexyl]methyl}piperazin-1-yl)-2,3-dihydro-1H-isoindol-2-yl]piperidine-2,6-dione], the DC50 under setting [1] was under 10 nM. Besides, the greatest degradation seen (Dmax) under setting [2] lay within 50 to 70%.
With `Cc1c(N2CCC(O[C@H]3CC[C@H](CN4CCN(c5cc(-c6n[nH]c7ccc(OC8(C)CC8)cc67)ncn5)CC4)CC3)CC2)ccc2c1CN(C1CCC(=O)NC1=O)C2=O` (some centres unmarked) [Compound 333, 3-(4-methyl-5-(4-(((1r,4r)-4-((4-(6-(5-(1-methylcyclopropoxy)-1H-indazol-3-yl)pyrimidin-4-yl)piperazin-1-yl)methyl)cyclohexyl)oxy)piperidin-1-yl)-1-oxoisoindolin-2-yl)piperidine-2,6-dione], under setting [3], the Dmax is 50 to 70%. Further, under setting [4], the 50% degradation concentration (DC50) was under 10 nM.
Regarding `C[C@@H]1CN(CC2CCN(c3cc(-c4n[nH]c5cnc(OC6(C)CC6)cc45)ncn3)CC2)CCN1CC1CCN(c2ccc3c(c2F)CN(C2CCC(=O)NC2=O)C3=O)CC1` (stereo partly drawn) [Compound 272, 3-[4-fluoro-5-(4-{[(2R)-2-methyl-4-[(1-{6-[5-(1-methylcyclopropoxy)-1H-pyrazolo[3,4-c]pyridin-3-yl]pyrimidin-4-yl}piperidin-4-yl)methyl]piperazin-1-yl]methyl}piperidin-1-yl)-1-oxo-2,3-dihydro-1H-isoindol-2-yl]piperidine-2,6-dione], under setting [3], the maximal degradation (Dmax) is 50 to 70%. Further, under setting [4], the half-maximal degradation concentration (DC50) was under 10 nM.
Turning to `CC1(Oc2cc3c(-c4cc(N5CCN(CC6(F)CCN(CC7CCN(c8ccc9c(c8F)CN(C8CCC(=O)NC8=O)C9=O)CC7)CC6)CC5)ncn4)n[nH]c3cc2F)CC1` (centres unmarked) [Compound 189, 3-[4-fluoro-5-[4-[[4-fluoro-4-[[4-[6-[6-fluoro-5-(1-methylcyclopropoxy)-1H-indazol-3-yl]pyrimidin-4-yl]piperazin-1-yl]methyl]-1-piperidyl]methyl]-1-piperidyl]-1-oxo-isoindolin-2-yl]piperidine-2,6-dione], under setting [5], the Dmax was at least 70%. Besides, under setting [6], the DC50 is under 10 nM.
As for `COc1c(N2CCC(O[C@H]3CCN(CC4CCN(c5cc(-c6n[nH]c7ccc(OC8(C)CC8)cc67)ncn5)CC4)C(C)(C)C3)CC2)ccc2c1CN(C1CCC(=O)NC1=O)C2=O` (stereo partly drawn) [Compound 316, 3-[5-(4-{[(4S)-2,2-dimethyl-1-[(1-{6-[5-(1-methylcyclopropoxy)-1H-indazol-3-yl]pyrimidin-4-yl}piperidin-4-yl)methyl]piperidin-4-yl]oxy}piperidin-1-yl)-4-methoxy-1-oxo-2,3-dihydro-1H-isoindol-2-yl]piperidine-2,6-dione], the Dmax under setting [3] lay in the range of 50 to 70%. Moreover, the DC50 under setting [4] was under 10 nM.
For `CC1(Oc2ccc3n[nH]c(-c4cc(N5CCC6(CC5)CN([C@H]5C[C@H](OC7CCN(c8ccc9c(c8F)CN(C8CCC(=O)NC8=O)C9=O)CC7)C5)C6)ncn4)c3c2)CC1` (some centres unmarked) [Compound 326, 3-(4-fluoro-1-oxo-5-{4-[(1r,3r)-3-(7-{6-[5-(1-methylcyclopropoxy)-2H-indazol-3-yl]pyrimidin-4-yl}-2,7-diazaspiro[3.5]nonan-2-yl)cyclobutoxy]piperidin-1-yl}-2,3-dihydro-1H-isoindol-2-yl)piperidine-2,6-dione] the same measures were 50 to 70% and under 10 nM.
`CC1(Oc2cc3c(-c4cc(N5CCC(CN6CCN(CC7CCN(c8ccc9c(c8F)CN(C8CCC(=O)NC8=O)C9=O)CC7)CC6)CC5)ncn4)n[nH]c3cn2)CC1` (centres unmarked) [Compound 201, 3-(4-fluoro-5-(4-((4-((1-(6-(5-(1-methylcyclopropoxy)-1H-pyrazolo[3,4-c]pyridin-3-yl)pyrimidin-4-yl)piperidin-4-yl)methyl)piperazin-1-yl)methyl)piperidin-1-yl)-1-oxoisoindolin-2-yl)piperidine-2,6-dione]: the greatest degradation seen (Dmax) under setting [5] is at least 70%. The DC50 under setting [6] is under 10 nM.
`COc1c(N2CCC(C(C)(C)N3CCN(CC4CCN(c5cc(-c6n[nH]c7ccc(OC8(C)CC8)cc67)ncn5)CC4)CC3)CC2)ccc2c1CN(C1CCC(=O)NC1=O)C2=O` (centres unmarked) [Compound 318, 3-{4-methoxy-5-[4-(2-{4-[(1-{6-[5-(1-methylcyclopropoxy)-1H-indazol-3-yl]pyrimidin-4-yl}piperidin-4-yl)methyl]piperazin-1-yl}propan-2-yl)piperidin-1-yl]-1-oxo-2,3-dihydro-1H-isoindol-2-yl}piperidine-2,6-dione]: the maximal degradation (Dmax) under setting [3] is at least 70%. The DC50 under setting [4] is under 10 nM.
As to `COc1cc(N2CCC(CN3CCC(F)(CN4CCN(c5cc(-c6n[nH]c7ccc(OC8(C)CC8)cc67)ncn5)CC4)CC3)CC2)cc2c1C(=O)N(C1CCC(=O)NC1=O)C2` (centres unmarked) [Compound 216, 3-{5-[4-({4-fluoro-4-[(4-{6-[5-(1-methylcyclopropoxy)-1H-indazol-3-yl]pyrimidin-4-yl}piperazin-1-yl)methyl]piperidin-1-yl}methyl)piperidin-1-yl]-7-methoxy-1-oxo-2,3-dihydro-1H-isoindol-2-yl}piperidine-2,6-dione], under setting [1], the DC50 is under 10 nM. In addition, under setting [2], the greatest degradation seen (Dmax) was at least 70%.
For `Cc1nc(-c2n[nH]c3ccc(OC4(C)CC4)cc23)cc(N2CCN(C[C@H]3CC[C@H](OC4CCN(c5ccc6c(c5F)CN(C5CCC(=O)NC5=O)C6=O)CC4)CC3)CC2)n1` (some centres unmarked) [Compound 365, 3-[4-fluoro-1-oxo-5-(4-{[(1r,4r)-4-[(4-{2-methyl-6-[5-(1-methylcyclopropoxy)-1H-indazol-3-yl]pyrimidin-4-yl}piperazin-1-yl)methyl]cyclohexyl]oxy}piperidin-1-yl)-2,3-dihydro-1H-isoindol-2-yl]piperidine-2,6-dione] the same measures were under 10 nM and 50 to 70%.
For `CC1(Oc2ccc3[nH]nc(-c4ccnc(N5CCC(O[C@H]6CC[C@H](CN7CCN(c8ccc9c(c8F)CN(C8CCC(=O)NC8=O)C9=O)CC7)CC6)CC5)c4)c3n2)CC1` (some centres unmarked) [Compound 375, 3-(4-fluoro-5-(4-(((1r,4r)-4-((1-(4-(5-(1-methylcyclopropoxy)-1H-pyrazolo[4,3-b]pyridin-3-yl)pyridin-2-yl)piperidin-4-yl)oxy)cyclohexyl)methyl)piperazin-1-yl)-1-oxoisoindolin-2-yl)piperidine-2,6-dione] the same measures were under 10 nM and 50 to 70%.
`CC1(Oc2cc3c(-c4cc(N5CCC(CN6CCC(F)(CN7CCN(c8ccc9c(c8F)CN(C8CCC(=O)NC8=O)C9=O)CC7)CC6)CC5)ncn4)n[nH]c3cc2F)CC1` (centres unmarked) [Compound 199, 3-{4-fluoro-5-[4-({4-fluoro-1-[(1-{6-[6-fluoro-5-(1-methylcyclopropoxy)-1H-indazol-3-yl]pyrimidin-4-yl}piperidin-4-yl)methyl]piperidin-4-yl}methyl)piperazin-1-yl]-1-oxo-2,3-dihydro-1H-isoindol-2-yl}piperidine-2,6-dione]: the maximal degradation (Dmax) under setting [5] was at least 70%. The DC50 under setting [6] was under 10 nM.
Take `CC1(Oc2cc3c(-c4cc(N5CCN(C[C@H]6CC[C@H](CN7CCN(c8ccc9c(c8F)CN(C8CCC(=O)NC8=O)C9=O)CC7)CC6)CC5)ncn4)n[nH]c3cn2)CC1` (some centres unmarked) [Compound 267, 3-[4-fluoro-1-oxo-5-(4-{[(1r,4r)-4-[(4-{6-[5-(1-methylcyclopropoxy)-1H-pyrazolo[3,4-c]pyridin-3-yl]pyrimidin-4-yl}piperazin-1-yl)methyl]cyclohexyl]methyl}piperazin-1-yl)-2,3-dihydro-1H-isoindol-2-yl]piperidine-2,6-dione]: the Dmax under setting [3] is at least 70%. Also, under setting [4], the DC50 is under 10 nM.
